The text below walks through data of patent US20210087525A1, “COST EFFECTIVE CULTURE MEDIA AND PROTOCOL FOR HUMAN INDUCED PLURIPOTENT STEM CELLS” (NORTHWESTERN UNIVERSITY, priority 2019, published 2021).

Data set [1] deals with hiPSC line 19-3. Nature of the data set: short-term 6-day hiPSC growth assay (media variable optimization). The format is cell-based, human. The following applies: for necessity of component for hiPSC growth: short-term assay, FIG. 2; for concentrations showing a similar effect on growth rate: FGF2-G3 compared with FGF2-K128N; for optimal / sufficient concentration for growth: one passage growth assay, FIG. 2E-F. The source says: FIG. 2A-F. Optimization of Basic Human Pluripotent Stem Cell Medium Constituents with a Short-Term Growth Assay. Results are normalized to initial medium component concentrations shown with a dark gray bar, optimizations were completed using short-term 6-day growth assay. […] (A) Comparison of the effect of recombinant human IGF1 LR3 (n=3) and recombinant human insulin (n=18-22) concentrations on relative growth. (B) L-ascorbic acid 2-phosphate (n=19-27). (C) Transferrin (n=2-20). (D) Sodium selenite (n=3-20). (E) FGF2-K128N (n=3-12). (F) TGFb1 (n=20-25). n=full experimental replicates, unpaired Student's T-test, *P≤0.05, **P≤0.01, ***P≤0.005, ****P≤0.0001, n.s.=not significant.
FIG. 3A-H. Optimization of Additional Human Pluripotent Stem Cell Medium Constituents in a Short-Term Assay. E8 medium component concentrations are shown with a dark gray bar, optimizations were completed using a simple 6-day growth assay. […] (A) Comparison of the suitability of recombinant transferrin (10 μg ml−1) to support clonal growth with and without ROCK1/2 inhibition using Y27632 (10 μM) during the first 24 h after passage (n=3). (B) Comparison of two common ROCK1/2 inhibitors only during first 24 h after passage on relative growth (n>5). (C) Comparison of the effect of the addition of non-essential amino acids (NEAA) and chemically defined lipids (n=5) on relative growth. (D) Fatty acid-free albumin (n=4). (E) Sodium bicarbonate (n=5). (F) pH (n=9). (G) Osmolarity (n=8). (H) FGF2-G3 (n=3). n=full experimental replicates, unpaired Student's T-test, *P≤0.05, **P≤0.01, ***P≤0.005, ****P≤0.0001, n.s.=not significant.
The hiPSC line 19-3 was dissociated with TrypLE (Gibco™, 12604-013) for 3 min at 37° C. and cells were resuspended in DMEM/F12, transferred to a 15 ml conical tube (Falcon) and centrifuged at 200×g for 3 min (Sorvall ST40). The pellet was resuspended in DMEM/F12, diluted to 1×10^5 cells per ml and 10,000 cells were plated per well in Matrigel® (1:800)-coated 12-well plates (Greiner) in the medium to be tested along with 2 μM thiazovivin for the first 24 h. Media were changed daily and cells were grown for 6 days. This lower than normal seeding density was used to allow the discovery of factors only detectable under more extreme conditions and therefore provide data on the robustness to the formulation.

Data set [2] relates to hiPSC. Description: long-term 5-passage, 4-day hiPSC growth assay. The following applies: for confirmed concentration in long-term assay: FIG. 5A-C; for necessity of component for hiPSC culture: long-term assay, removal of dispensable components reduces growth rate; for concentration confirmed / usable / required in long-term assay: FIG. 5D-L. The format is cell-based, human. The source says: FIG. 5A-P. Optimization of B8 Medium Constituents with a Long-Term Growth Assay. Results are normalized to initial medium component concentrations shown with a dark gray bar, optimizations were completed using long-term 5-passage, 4-day growth assay. Comparison of the effect of (A) recombinant human insulin concentration on relative growth (n=10). (B) L-ascorbic acid 2-phosphate (n=10). (C) Recombinant transferrin (n=10). (D) Sodium selenite (n=5). (E) In-house made FGF2-G3 (n=6). (G) NODAL (n=5). (H) Activin A (n=5). (I) In-house made TGFb3 after 9 passages compared to commercial TGFb1 (n=9). (J) Addition of NRG1 to 40 ng ml−1 FGF2-G3 (n>5). (K) Final B8 formula. n=full experimental replicates, unpaired Student's T-test, *P≤0.05, **P≤0.01, ***P≤0.005, ****P≤0.0001, n.s.=not significant.
Our initial short-term experiments provided preliminary optimizations, yet we were aware from previous experiments that some variables, such as the elimination of TGFβ1, had minimal effects short-term and would only have detectable negative effects in long-term experiments. Thus the effectiveness of a long-term assay was evaluated with the following assay protocol: […]

The conditions of data set [3]: monomeric C77S protein; predicted (Kim et al., 2015); cited from earlier work.
The subject of data set [4] is phospho-ERK. Description: stimulation of phospho-ERK in FGF2-starved hiPSC by media stored at 37° C. (Western blot). It counts as cell-based, human. As for the experimental part:
FIG. 7A-E. Qualification of B8 as Suitable for hiPSC Generation and Culture. […] (B) Expression of pluripotent markers in a variety of B8-derived hiPSC lines. (C) Example G-banding karyotype analysis of four hiPSC lines derived in B8 from blood. (D) hiPSC growth at low seeding densities in B8 compared to E8 (n=8). (E) Assessment of stimulation of phospho-ERK after media had been stored at 37° C. for 2 or 7 days, comparing in-house generated FGF2-G3 to a commercial FGF2 (Peprotech). hiPSC were starved of FGF2 for 24 h then treated with the indicated media for 1 h before collection for Western blot. Total ERK was used as a loading control.
Stock lysis buffer was prepared as 150 mM NaCl, 20 mM Tris pH 7.5, 1 mM EDTA, 1 mM EGTA, and 1% Triton X-100 and stored at 4° C. Fresh complete lysis buffer was prepared with final concentration of 1× Protease Inhibitor (Roche, 5892791001), 1× Phosphatase Inhibitor Cocktail 2 (P5726, Sigma), 1× Phosphatase Inhibitor Cocktail 3 (Sigma, P0044), 2 mM PMSF (Sigma, P7626), and 1% SDS Solution (Fisher Scientific, BP2436200). hiPSC were starved using B8 without FGF2 for 24 hours, then treated with media containing the corresponding FGF2 for 1 h. Media was then removed, and cells were washed once with DPBS, harvested with 0.5 mM EDTA in DPBS, and transferred into tubes. Samples were pelleted by centrifugation at 500×g for 3 minutes and the supernatant was discarded. The pellet was resuspend in 150 μl complete lysis buffer and incubated on ice for 30 min. Clear lysates were collected by centrifugation at 10,000×g for 10 min at 4° C. The protein concentration was measured with Qubit Protein Assay Kit (Invitrogen, Q33211) and Qubit 4 fluorometer. Lysates was stored in −80° C. before use. 10 μg of sample was prepared with NuPAGE™ LDS Sample Buffer (Invitrogen, B0007) and NuPAGE™ Reducing Agent (Invitrogen, B0009) according to the manufacturer's instructions and run on NuPAGE™ 10% Bis-Tris Gel (Invitrogen, NP0302BOX) and Mini Gel Tank system (Invitrogen, A25977) with Bolt MES SDS Running Buffer (Invitrogen, B000202) at 100 V for 1 h. […]

Regarding `O=C1O[C@H]([C@@H](O)CO)C(O)=C1OP(=O)(O)O.[Na+].[Na+].[Na+]` [Ascorbic acid 2-phosphate, L-ascorbic acid 2-phosphate trisodium salt], the “necessity of component for hiPSC growth” value in data set [1] was “not essential”. Moreover, in data set [2], the “confirmed concentration in long-term assay” value (shortened to “confirmed concentration”) worked out at 200 µg/mL and the “necessity of component for hiPSC culture” value is recorded as “dispensable”.
In the case of `O=C([O-])O.[Na+]` [sodium bicarbonate], the “optimal concentration for growth” value in data set [1] (FIG. 3E) was found to be 29 mM.
As for `O=[Se](O)O` [sodium selenite], the “concentrations that did not significantly affect growth” value in data set [1] (FIG. 2D) was 2 to 200 ng/mL. Besides, the “concentration confirmed / usable / required in long-term assay” value in data set [2] was found to be 20 ng/mL.
Consider `O=C(NCc1ccccc1)c1csc(Nc2ccncn2)n1` [thiazovivin, reference compound], for which the “effect on growth vs 10 μM Y27632” value in data set [1] (2 μM for the first 24 h after passage, FIG. 3B) is “marginally, though not significantly, improved growth”.
For “FGF2-K128N: recombinant human FGF2 with K128N substitution, made in-house in E. coli (SEQ ID NO: 4/14)”, the “concentrations showing a similar effect on growth rate” value in data set [1] (FIG. 3H) is 100 ng/mL. In data set [1], the “optimal / sufficient concentration for growth” value is at least 40 ng/mL.
“FGF2: fibroblast growth factor 2, human FGF2 (SEQ ID NO: 3)”: the “necessity of component for hiPSC growth” value in data set [1] is listed as “essential”.
Consider “IGF1 LR3: recombinant human IGF1 LR3 (Sigma, 91590C)”, for which the “level of IGF1 LR3 able to replace insulin” value in data set [1] (FIG. 2A, not cost-effective) is at least 1 µg/mL.
Turning to “TGFβ1: recombinant human TGFβ1 (112 amino acid, HEK293-derived, Peprotech)”, in data set [1], the “optimal / sufficient concentration for growth” value was at least 0.5 ng/mL. Further, in data set [2], the “concentration confirmed / usable / required in long-term assay” value was determined as 0.1 ng/mL and the “necessity of component for hiPSC culture” value is on record as “essential”.
For the molecule “TGFβ1m: TGFβ1 with C77S point mutation, unable to form dimers, produced in E. coli”, the “potency relative to TGFβ1 (fold less potent)” value in data set [3] is on record as around 20 fold.
Turning to “Transferrin: Oryza sativa-derived recombinant human transferrin (Optiferrin, InVitria)”, the “concentration enhancing growth / giving optimal growth” value in data set [1] (FIG. 2B-C) is 20 µg/mL. Further, the “necessity of component for hiPSC growth” value in data set [1] is “not essential”. In data set [2], the “confirmed concentration” value was determined as 20 µg/mL and the “necessity of component for hiPSC culture” value is “dispensable”.
Regarding “commercial FGF2: a commercial FGF2 (Peprotech) [reference compound]”, the “pERK stimulation after storage of media at 37° C.” value in data set [4] (2 days at 37° C.) is on record as “not capable of stimulating pERK”.
As for “insulin: E. coli-derived recombinant human insulin (Gibco)”, the “concentration up to which effect on growth was dose-dependent” value in data set [1] (FIG. 2A) was “up to 20 μg ml^−1”. Further, the “necessity of component for hiPSC growth” value in data set [1] was “essential”. For the same molecule, the “confirmed concentration” value in data set [2] is 20 µg/mL.

B1: NODAL: Activin/NODAL/TGFβ1 signaling source (protein, UniProt Q96S42 238-347, looked up)
Nodal homolog: HHLPDRSQLCRKVKFQVDFNLIGWGSWIIYPKQYNAYRCEGECPNPVGEEFHPTNHAYIQSLLKRYQPHRVPSTCCAPVKTKPLSMLYVDNGRVLLDHHKDMIVEECGCL
As for B1, the “concentration confirmed / usable / required in long-term assay” value in data set [2] amounted to 100 ng/mL.

B2: NRG1: 65 amino acid truncated neuregulin 1 containing just the EGF domain (SEQ ID NO: 17) (protein)
chain: SHLVKCAEKEKTFCVNGGECFMVKDLSNPSRYLCKCPNEFTGDRCQNYVMASFYKHLGIEFMEAE
For the molecule B2, the “enhancement of growth over FGF2-G3 alone” value in data set [2] (all tested levels of NRG1 added to 40 ng ml−1 FGF2-G3) is given as above 15%. In addition, the “necessity of component for hiPSC culture” value in data set [2] is reported as “dispensable”. For the same molecule, in data set [2] (no FGF2), the “support of growth in the absence of FGF2” value is reported as “not able to support growth”.

B3: FGF2-G3: thermostable FGF2 with nine point mutations, made in-house in E. coli (SEQ ID NO: 15) (protein)
chain: AAGSITTLPALPEDGGSGAFPPGHFKDPKLLYCKNGGFFLRIHPDGRVDGTRDKSDPFIKLQLQAEERGVVSIKGVCANRYLAMKEDGRLYAIKNVTDECFFFERLEENNYNTYRSRKYPSWYVALKRTGQYKLGSKTGPGQKAILFLPMSAKS
With B3, in data set [1] (FIG. 3H), the “concentrations showing a similar effect on growth rate” value is 5 ng/mL and the “relative potency on growth rate” value is “more potent than FGF2-K128N”. Also, the “stability (pERK stimulation) after storage of media at 37° C.” value in data set [4] (7 days at 37° C.) was “stable”. Further, the “concentration confirmed / usable / required in long-term assay” value in data set [2] was 40 ng/mL.

B4: Activin A: Activin/NODAL/TGFβ1 signaling source (protein, UniProt P08476 311-426, looked up)
Inhibin beta A chain: GLECDGKVNICCKKQFFVSFKDIGWNDWIIAPSGYHANYCEGECPSHIAGTSGSSLSFHSTVINHYRMRGHSPFANLKSCCVPTKLRPMSMLYYDDGQNIIKKDIQNMIVEECGCS
modifications: Inhibin beta A chain
As to B4, the “effect on growth in combination with TGFβ1” value in data set [2] (FIG. 5I) is “negative effect on growth”. The “suitability to maintain growth” value in data set [2] (alone, FIG. 5H) was “not suitable to maintain growth to the same level as TGFβ1”. Also, the “support of growth at very low doses” value in data set [2] (very low doses) was “could support growth, albeit to a lesser extent than TGFβ1”.
